Experimental data reported in patent US9034906B2, “EP4 agonist” (Asahi Glass Company, Limited, priority 2008, dated 2015).

Legend:
[1] = molecular target: T1, human EP4 (Homo sapiens, UniProt P35408); test: Receptor affinity, tritium-labeled PGE2 binding to membranes of transfected COS-7 cells; settings: binding affinity ratio
T1 construct: expressed in transfected cells; host or cells: COS-7 (membranes)
Protocol: PG receptor affinity of compound F and compound J of the present invention was evaluated. Compound F used was one synthesized in Example 9, and compound J was prepared by separating and purifying the compound synthesized in Example 14 with a column (the same preparations were used in the following Examples). COS-7 cells were transfected with the genes of mouse EP4, human EP1-4 or human IP to overexpress the receptor and then the cell membranes were collected. […] The dissociation constant Kd value was obtained and inhibition constant Ki value of each test compound was determined in a conventional method.

[2] = Effect on blood pressure and heart rate in mice; type: in vivo, mouse; settings: ICR mice, intravenous 0.01 mg/kg, isoflurane anesthesia
Protocol: Male ICR mice (5 weeks old, Japan SLC) were purchased, acclimated for 6 days and used for the test. The animals were treated and measured under isoflurane inhalation anesthesia (anesthesia introduced at 2.5%, maintained at 1.8-2.1%), while body temperature was kept at 37° C. with a Heat Controller (ATC-402, Unique Medical Co., Ltd.). A catheter for administration of test compounds was inserted into the left femoral vein, and another catheter was inserted into the right femoral artery and connected to a pressure transducer to record each parameter of hemodynamics.
Compound F, the carboxylate form of compound F and BPS were intravenously administered at a dose of 0.01 mg/5 mL/kg, and the effect on the mean blood pressure and heart rate was evaluated with computer software for the analysis of hemodynamics (Fluclet, Dainippon Sumitomo Pharma Co., Ltd.). To the control group was intravenously administered a solvent (1.2% ethanol solution) at 5 mL/kg in the same manner. The results are expressed as a ratio of change in each parameter before and after the drug administration. Three to 6 animals were used for each group, and the results were expressed as average±standard deviation.

[3] = tested on: dextran sodium sulfate-induced colitis; test: Dextran sodium sulfate-induced colitis in rats, prophylactic; type: in vivo, rat; settings: SD rats, 5.5 w/v % DSS, oral 1 mg/kg and 3 mg/kg once a day
Protocol: Prophylactic effect of compound F on colitis was also studied in rats. Male SD rats, 7 weeks old, body weight around 210 g-240 g (Charles River) were purchased, acclimated for 1 week and used for the study. Except the normal group, the rats were allowed to freely drink a DSS (MP Biochemicals, M.W. 36,000-50,000, Lot No. 4556J) solution prepared to 5.5 w/v % for 8 days to induce colitis. Compound F at doses of 0.3, 1 and 3 mg/kg was orally administered once a day, daily, from one day before the start day of DSS drinking to one day before autopsy (day 7). To the control group was orally administered a solvent (1 vol % ethanol solution) at 5 mL/kg.
On day 8 from the start of DSS drinking, 1.25 w/v % Evans blue solution was administered at 0.2 mL/100 g from the tail vein. After 30 min, the rats were subjected to laparotomy under ether anesthesia and exsanguinated to death. Thereafter, the large intestine was dissected from just below the cecum to the anus, and the length was measured with a scale. […] The next day, the dry weight was measured, formamide (2 mL) was added, the dye was extracted at 50° C. overnight, and the level thereof was measured at 620 nm. A standard curve was prepared using an Evans blue standard solution, and the amount (mg) of Evans blue in 1 g of the colonic tissue was calculated to estimate degree of colonic tissue injury. […]

[4] = tested on: concanavalin A-induced hepatitis; test: Concanavalin A-induced hepatitis model in mice, prophylactic; type: in vivo, mouse; settings: BALB/c mice, oral 1 hr before Con A; compound F 1 mg/10 mL/kg, prednisolone 5 mg/10 mL/kg
Protocol: The prophylactic effect of compound F on hepatitis was investigated using concanavalin A (hereinafter Con A)-induced hepatitis model.
BALB/c mice (female, 7 weeks old, Japan SLC) were purchased, acclimated for 1 week and used for the study. Except the no-induction group, Con A (type IV, Sigma-Aldrich) dissolved in saline was administered from the tail vein of the mice at a dose of 12.5 mg/10 mL/kg to induce hepatitis. Twenty hr later, the mice were subjected to laparotomy under ether anesthesia. A 0.5 mL of blood sample was collected from the caudal vena cava and heparinized plasma was obtained to measure plasma ALT and AST activities. Test substances were compound F (1 mg/10 mL solution), prednisolone (Nacalai Tesque, 5 mg/10 mL suspension (with 0.5 w/v % methylcellulose)) and water for injection (administered to the control group), which were orally administered at a volume of 10 mL/kg 1 hr before Con A injection. Seven to 9 animals were used for each group. After logarithmic transformation of the data, one-way analysis of variance was performed for statistical evaluation.

T1 sequence (P35408 whole entry): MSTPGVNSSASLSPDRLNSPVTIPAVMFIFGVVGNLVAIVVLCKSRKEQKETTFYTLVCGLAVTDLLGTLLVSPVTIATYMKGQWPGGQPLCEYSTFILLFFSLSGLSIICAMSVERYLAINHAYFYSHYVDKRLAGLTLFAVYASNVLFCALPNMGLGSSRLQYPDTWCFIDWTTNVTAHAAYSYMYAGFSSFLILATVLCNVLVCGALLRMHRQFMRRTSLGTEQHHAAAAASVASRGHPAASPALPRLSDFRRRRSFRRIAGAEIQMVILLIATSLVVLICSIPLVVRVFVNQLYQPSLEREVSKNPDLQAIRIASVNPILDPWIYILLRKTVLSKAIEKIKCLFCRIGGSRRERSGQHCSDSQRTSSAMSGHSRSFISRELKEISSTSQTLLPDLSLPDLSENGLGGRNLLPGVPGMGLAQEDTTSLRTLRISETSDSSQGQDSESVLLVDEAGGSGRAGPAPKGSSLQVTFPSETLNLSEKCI

Q: For `Cc1cccc([C@@H](C)[C@H](O)/C=C/[C@@H]2[C@@H]3[C@H](C[C@H]2O)O/C(=C\CCCc2nnn[nH]2)C3(F)F)c1` [Compound F, 4-[(Z)-(1S,5R,6R,7R)-6-[(1E,3R,4R)-3-hydroxy-4-(m-tolyl)-1-pentenyl]-7-hydroxy-2-oxa-4,4-difluoro-bicyclo[3.3.0]octan-3-ylidene]-1-(tetrazol-5-yl)butane], which “Affinity for human EP4 higher than to human EP1, EP2 and EP3” value [1] is on record?
A: The value was ≥ 60 fold.

Q: What about the “Affinity for human EP4 higher than to human IP” value [1] of the same compound?
A: Its value is ≥ 100 fold.

Q: And the “Effect on heart rate” value [2]?
A: The value was “little effect”.

Q: What about the “Maximum decrease ratio of mean blood pressure” value [2] of the same compound?
A: Its value is 16.2%.

Q: And the “Effect on stool score, colonic tissue injury and shortening of the large intestine” value [3]?
A: Its value is “suppressive tendency or significant suppressive effect”.

Q: What about the “Effect on increase of plasma ALT and plasma AST activities” value [4] of the same compound?
A: Its value is “significantly and strongly suppressed the increase”.
